{
  "source": "patent US20250009896A1",
  "about": "“SUPR[…] BASED VIRAL […] CAPTURE FOR PREVENTION AND THERAPY OF VIRAL INFECTION” (The Johns Hopkins University, priority 2023, published 2025)",
  "key": {"SARS-CoV-2 PsV": {"tested_on": "SARS-CoV-2 PsV", "type": "cell-based", "conditions": "0.5 nM ACE2 dose"}, "SARS-CoV PsV": {"tested_on": "SARS-CoV PsV", "type": "cell-based"}, "VSVG PsV": {"tested_on": "VSVG PsV", "type": "cell-based, vesicular stomatitis virus"}, "ACE2 [1]": {"target": "T1, ACE2 (Homo sapiens, UniProt Q9BYF1)", "T1 sequence (Q9BYF1 18-805)": "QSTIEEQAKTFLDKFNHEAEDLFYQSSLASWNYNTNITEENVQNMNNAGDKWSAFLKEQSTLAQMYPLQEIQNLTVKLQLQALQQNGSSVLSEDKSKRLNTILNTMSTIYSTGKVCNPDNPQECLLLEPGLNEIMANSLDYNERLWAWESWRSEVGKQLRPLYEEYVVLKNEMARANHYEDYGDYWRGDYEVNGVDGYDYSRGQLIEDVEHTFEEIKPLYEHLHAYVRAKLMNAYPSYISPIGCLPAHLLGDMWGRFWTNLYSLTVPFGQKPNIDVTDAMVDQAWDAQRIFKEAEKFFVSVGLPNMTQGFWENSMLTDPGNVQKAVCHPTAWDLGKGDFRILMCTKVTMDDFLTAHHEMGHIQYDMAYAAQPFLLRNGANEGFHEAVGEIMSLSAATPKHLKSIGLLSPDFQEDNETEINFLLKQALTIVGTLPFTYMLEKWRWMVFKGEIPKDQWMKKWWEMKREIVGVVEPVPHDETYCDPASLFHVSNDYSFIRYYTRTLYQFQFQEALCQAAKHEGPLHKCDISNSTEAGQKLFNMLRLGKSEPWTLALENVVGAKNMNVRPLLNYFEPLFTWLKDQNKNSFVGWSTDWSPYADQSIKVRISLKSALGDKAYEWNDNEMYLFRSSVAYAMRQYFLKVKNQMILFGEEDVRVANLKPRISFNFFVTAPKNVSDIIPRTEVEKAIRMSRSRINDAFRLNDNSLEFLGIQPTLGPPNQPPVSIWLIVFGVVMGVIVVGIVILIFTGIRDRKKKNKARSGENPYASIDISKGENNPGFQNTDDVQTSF", "conditions": "ACE2 inhibitor; cited from earlier work"}, "ACE2 [2]": {"target": "T1, ACE2", "conditions": "cited from earlier work"}, "[3]": {"experiment": "Critical micelle concentration by Nile Red assay", "type": "physicochemical", "conditions": "MilliQ water pH=7.4, Nile Red assay", "protocol": "Using a Nile Red assay, the CMC of each PA monomer (Filler and Ligand) and their co-assembly (1:1 molar ratio) was determined. Nile Red dye intensely fluoresces within hydrophobic environments but is strongly quenched and red-shifted in aqueous environments. Thus, when mixed with PAs at a concentration exceeding the CMC, Nile Red will embed within the hydrophobic core and emit a strong fluorescence signal. A 500 μM stock solution of Nile Red was prepared in acetone, and 10 μL of the stock was added to microcentrifuge tubes. Acetone was evaporated off in the dark. Solutions of the samples (500 μL, water) were added to the tubes at varied concentrations and were aged for 2 days in the dark at room temperature. Samples were added to a quartz micro fluorometer cell (0.7 mL, 10 mm pathlength, Starna Cells, Atascadero, CA), and at an excitation wavelength of 550 nm, five parallel emission spectra were recorded at a wavelength range of 580 to 720 nm on a Duetta UV-Vis-NIR spectrofluorometer (HORIBA Scientific). The emission intensity ratio for each run at 635 nm (emission maximum of Nile Red in a hydrophobic environment) to 660 nm (emission maximum of Nile Red in a hydrophilic environment) was plotted against tested concentrations to obtain a transition curve from which CMC was determined."}, "[4]": {"target": "Recombinant human angiotensin-converting enzyme 2 (ACE2) (Homo sapiens, UniProt Q9BYF1)", "sequence (Q9BYF1 18-740)": "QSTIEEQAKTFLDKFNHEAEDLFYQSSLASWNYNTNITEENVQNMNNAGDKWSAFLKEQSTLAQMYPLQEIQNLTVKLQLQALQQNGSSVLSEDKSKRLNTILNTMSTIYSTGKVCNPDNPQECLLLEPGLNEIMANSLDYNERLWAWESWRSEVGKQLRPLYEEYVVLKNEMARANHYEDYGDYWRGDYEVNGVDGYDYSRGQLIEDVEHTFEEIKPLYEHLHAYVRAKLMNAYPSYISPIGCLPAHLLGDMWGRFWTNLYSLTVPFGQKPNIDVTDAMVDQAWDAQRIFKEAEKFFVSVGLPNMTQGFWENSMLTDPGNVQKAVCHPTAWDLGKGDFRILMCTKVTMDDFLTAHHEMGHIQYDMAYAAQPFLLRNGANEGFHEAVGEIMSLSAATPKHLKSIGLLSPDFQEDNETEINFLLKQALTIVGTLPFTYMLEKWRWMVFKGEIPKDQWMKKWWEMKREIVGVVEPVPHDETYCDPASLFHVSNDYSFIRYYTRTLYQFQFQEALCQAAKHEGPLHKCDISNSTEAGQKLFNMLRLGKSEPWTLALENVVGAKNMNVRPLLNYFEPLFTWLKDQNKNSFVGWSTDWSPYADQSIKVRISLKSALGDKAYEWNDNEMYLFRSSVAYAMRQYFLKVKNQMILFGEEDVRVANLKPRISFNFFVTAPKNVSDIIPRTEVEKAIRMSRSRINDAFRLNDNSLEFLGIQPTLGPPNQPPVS", "experiment": "ACE2 activity assay with fluorogenic peptide substrate Mca-YVADAPK(Dnp)-OH", "conditions": "50 nM ACE2; 1 mM Filler or 50 μM Ligand"}},
  "note": "Residues, ends and D or L forms follow the SMILES beside them. *: point of attachment. Lauroyl = CCCCCCCCCCCC(=O)*",
  "data": [
    {"compound": "ACE2: Recombinant human angiotensin-converting enzyme 2 (ACE2) protein (carrier-free), R&D Systems", "values": [
      {"measurement": "incubation time at which inhibition becomes identical to / indistinguishable from empty filaments", "setting": "SARS-CoV-2 PsV", "result": "≤ 6", "unit": "h"},
      {"measurement": "SARS-CoV PsV infection inhibition", "setting": "SARS-CoV PsV", "result": "strongly inhibited"},
      {"measurement": "VSVG PsV infection inhibition (dose-dependent strong inhibition trend)", "setting": "VSVG PsV", "result": "not observed"}
    ]},
    {"compound": "non-cleavable peptidic ACE2 inhibitor GDYSHCSPLRYYPWWKCTYPDPEGGG (SEQ ID NO: 5/16) [DX600]", "values": [
      {"measurement": "Ki", "setting": "ACE2 [1]", "result": 2.8, "unit": "nM"},
      {"measurement": "Kd", "setting": "ACE2 [2]", "result": 10.1, "unit": "nM"}
    ]},
    {"compound": "CCCCCCCCCCCC(=O)N[C@H](C(=O)N[C@H](C(=O)N[C@H](C(=O)NCC(=O)N[C@@H](CCC(=O)O)C(=O)N[C@@H](CCC(=O)O)C(N)=O)C(C)C)C(C)C)C(C)C", "note": "[Filler] (Lauroyl-VVVGEE-NH2)", "values": [
      {"measurement": "critical micelle concentration (CMC)", "setting": "[3]", "result": "around 2.9 μM"},
      {"measurement": "impact on ACE2 activity / initial velocity", "setting": "[4]", "result": "slight impact on ACE2 activity"}
    ]}
  ]
}
